Literature values in publication PMC7190335 (Science Advances, 2020).

Biological target: T1, COUP-TFII (Homo sapiens, UniProt P24468)
T1 sequence (P24468 1-414): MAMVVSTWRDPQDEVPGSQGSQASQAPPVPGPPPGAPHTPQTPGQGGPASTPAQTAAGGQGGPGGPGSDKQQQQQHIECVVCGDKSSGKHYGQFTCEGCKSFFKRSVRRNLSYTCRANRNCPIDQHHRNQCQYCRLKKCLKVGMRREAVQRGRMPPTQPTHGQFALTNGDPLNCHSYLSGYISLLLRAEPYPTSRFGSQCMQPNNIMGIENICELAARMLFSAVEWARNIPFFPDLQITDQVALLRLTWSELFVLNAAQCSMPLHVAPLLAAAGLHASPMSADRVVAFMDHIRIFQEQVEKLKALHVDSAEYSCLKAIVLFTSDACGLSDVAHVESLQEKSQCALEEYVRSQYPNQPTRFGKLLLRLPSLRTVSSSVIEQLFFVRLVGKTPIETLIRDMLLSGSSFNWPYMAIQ

Q: For `COc1ccc(O)c2ccccc12` [4-methoxynaphthol compound, 4-methoxynaphthol], which “concentration needed to reduce COUP-TFII activity” value is on record?
A: up to 100 μM
